PubChem BioAssay (NCI)
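48-hour exposure; five concentrations; linearly interpolated endpoints. GI50: concentration for 50% inhibition of growth. TGI: total growth inhibition.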

Assays:
Experiment in all cases: DTP human tumour cell line panel, 48 h
[1] = test system: SK-MEL-5 melanoma
[2] = test system: SR leukemia
[3] = test system: RXF 393 renal
[4] = test system: OVCAR-8 ovarian
[5] = test system: TK-10 renal
[6] = test system: SNB-19 CNS
[7] = test system: CAKI-1 renal
[8] = test system: SW-620 colon
[9] = test system: HS 578T breast
[10] = test system: MDA-MB-231 breast

Row | SMILES | TGI [1] [µM] | TGI [2] [µM] | TGI [3] [µM] | TGI [4] [µM] | TGI [5] [µM] | TGI [6] [µM] | TGI [7] [µM] | TGI [8] [µM] | GI50 [9] [µM] | TGI [9] [µM] | GI50 [1] [µM] | GI50 [10] [µM] | TGI [10] [µM] | GI50 [3] [µM] | GI50 [4] [µM] | GI50 [5] [µM] | GI50 [6] [µM] | GI50 [7] [µM] | GI50 [8] [µM] | GI50 [2] [µM]
1 | O=C1NC(=O)C2C(=O)NC(=O)C1C2c1c(Cl)cccc1Cl (configuration not stated) | > 100 | > 100 | 98.1 | > 100 | > 100 | > 100 | > 100 | > 47.1 |  |  |  |  |  |  |  |  |  |  |  | 
2 | O=C(NN1C(=O)CSC12CCCCC2)c1[nH]c2ccc(Br)cc2c1-c1ccccc1 | > 100 |  | 30.3 | 30.1 | 33.2 | 64.2 | 80 | > 100 | 23.1 | 66.1 | 31.2 | 20.4 | 42.3 | 14.2 | 16.3 | 17 | 24.1 | 25.5 | 34.7 | 
3 | COC(=O)C1CC2CC(=NNC(N)=O)CC2C1 (configuration not stated) | > 100 |  | > 100 | > 100 | > 100 | > 100 | > 100 | > 100 |  |  |  |  |  |  |  |  |  |  |  | 
4 | COc1ccc(-c2cc(Cc3cccs3)c(=O)[nH]n2)cc1 | 49.5 |  | > 100 | > 100 | > 100 | > 100 |  | > 100 |  |  |  |  |  |  |  |  |  |  |  | 
5 | N#CC(=C1C=CC(=NO)C=C1)c1ccc(Cl)cc1 | 21.3 | 43.5 | 36.5 | 60.3 | 75 | > 100 | 29 | 24 |  |  |  |  |  |  |  |  |  |  |  | 
6 | COc1cc2nc(N3CCCC3)nc(NCCc3ccccc3)c2cc1OC | 3.15 | 5.74 | 2.76 | 6.05 | 3.56 | 3.3 | 3.19 | 3.07 |  |  | 1.7 | 1.79 | 3.35 | 1.28 | 2.14 | 1.97 | 1.74 | 1.66 | 1.38 | 0.653
7 | C1CCC([PH+](C2CCCCC2)C2CCCCC2[PH+](C2CCCCC2)C2CCCCC2)CC1.[Au].[CH-]1CCCCC1CC1CCCC[N-]1 (configuration not stated) | 0.813 |  | 1.12 | > 100 | 2.05 | 1.46 | 2.29 | 1.41 | 0.276 | 1.69 | 0.288 | 0.227 | 0.689 | 0.277 | 0.264 | 0.516 | 0.327 | 0.791 | 0.371 | 
8 | O=C(NC1CCCCC1)NS(=O)(=O)c1ccc2c(c1)CCC2 |  | > 100 | > 100 | > 100 | > 100 | > 100 |  | > 100 |  |  |  |  |  |  |  |  |  |  |  | 
9 | N#CC(C#N)=C1NC(=O)CC(=O)N1 | > 100 | > 100 | > 100 | > 100 | > 100 | > 100 | > 100 | > 100 |  |  |  |  |  |  |  |  |  |  |  | 
10 | N#CC1(C(N)=O)C(c2ccc(Cl)cc2)CC(=O)CC1c1ccc(Cl)cc1 (configuration not stated) | 31.1 |  |  | 42.2 | 39.5 | 33.5 | 55.9 | 31.1 | 23.3 | 61.6 | 17.4 | 13.8 | 28.9 |  | 18.4 | 17.1 | 17.7 | 20.4 | 17.2 | 
11 | CC1(O)C=CC(=O)C=C1 | > 89.4 | 61.2 | 44.4 | > 68.8 | > 93 | 70.3 | 91.5 | > 100 |  |  |  |  |  |  |  |  |  |  |  | 
12 | Cc1ccc2c(C3Cc4ccccc4N3C(=O)/C=C\C(=O)O)c(C)[nH]c2c1 (configuration not stated) | > 100 | 72.9 | 93.8 | > 100 | > 100 | > 100 | > 100 | > 100 |  |  |  |  |  |  |  |  |  |  |  | 
13 | Clc1ccc(Nc2nc3ccccc3nc2-c2cccs2)cc1Cl |  | > 100 | 89.2 | 68.6 | > 100 | > 100 |  | > 100 |  |  |  |  |  |  |  |  |  |  |  | 
14 | O=C1C(=C([O-])c2ccccc2)C(=O)c2ccccc21.O=C1C(=C([O-])c2ccccc2)C(=O)c2ccccc21.[Fe+2] | > 100 |  |  | > 100 | > 100 | > 100 | > 100 | > 100 |  |  | > 100 |  |  |  | 72.4 | 88.3 | > 100 | > 100 | > 100 | 
15 | O=C(/C=C\c1cccc([N+](=O)[O-])c1)/C=C/c1cccc([N+](=O)[O-])c1 | > 100 |  | 6.57 | > 100 | 8.7 | > 100 | > 100 | 4.53 |  |  | 61.3 | 14.4 | > 100 | 2.55 | 5.25 | 2.97 | 16.4 | 4.4 | 1.9 | 
16 | CCCP1(=O)C=C(C)C(=C(Cl)Cl)C(C)=C1 (configuration not stated) | 49.1 | 77.4 | > 100 | > 100 | > 100 |  |  | > 100 |  |  |  |  |  |  |  |  |  |  |  | 
17 | O=C1c2c(c3c4ccccc4[nH]c3c3ccc4ccccc4c23)C(=O)N1CCN1CCNCC1 | 3.31 | 2.63 | 3.39 |  | 3.24 | 2.99 | 2.69 | 3.16 |  |  | 1.78 | 1.72 | 3.27 | 1.76 |  | 1.77 | 1.6 | 1.37 | 1.49 | 0.598
18 | COc1cc2c(cc1OCCCn1c(-c3ccccn3)nc3ccccc31)N=C[C@@H]1CCCN1C2=O | 2.96 | > 20.1 | 3.64 |  | 10.9 | 18.1 | 5.6 | 8.33 |  |  | 1.57 | 2.5 | 13.5 | 0.571 | 0.957 | 3.32 | 3.61 | 2.16 | 2.47 | 2.82
19 | CCOC(=O)C1C(=S)NC(=O)C1C#N (configuration not stated) | > 100 |  | > 100 | > 100 | > 100 | > 100 | > 100 | > 100 |  |  |  |  |  |  |  |  |  |  |  | 
20 | CC(=O)Nc1ccc(SC#N)c2c(NC(C)=O)cccc12 | > 100 | > 100 | > 100 | > 100 | > 100 | > 100 | > 100 | > 100 |  |  |  |  |  |  |  |  |  |  |  | 
